In the first test the test system is Leishmania major promastigotes. In words: Anti-leishmanial assay (promastigote culture, 72 h, microscopic counting). It is filed as cell-based. Conditions: 72 h at 21-22° C., assays repeated thrice, read-out: Leishmanicidal Activity (IC50 in μM).
With `C[C@]12[C@H](O)C[C@H]3[C@@H](CCC4=CC(=O)CC[C@@]43O)[C@@H]1CC[C@@H]2O` [Compound 2, 10β,12β,17β-Trihydroxy-19-nor-4-androsten-3-one], the IC50 was over 100 µM.

Regarding `C[C@]12CC[C@H]3[C@@H](CCC4=CC(=O)CC[C@@]43O)[C@@H]1C[C@@H](O)[C@@H]2O` [Compound 3, 10β,16α,17β-Trihydroxy-19-nor-4-androsten-3-one], the IC50 was determined as 77.4 µM.

For the molecule `C[C@]12CC[C@H]3[C@@H](C[C@@H](O)C4=CC(=O)CC[C@@]43O)[C@@H]1CC[C@@H]2O` [Compound 4, 6β,10β,17β-Trihydroxy-19-nor-4-androsten-3-one], the concentration for half-maximal inhibition (IC50) was 70.9 µM.

For the molecule `C[C@]12CC[C@H]3[C@@H](CCC4=CC(=O)CC[C@@]43O)[C@@H]1CC[C@@H]2O` [Compound 5, 10β,17β-Dihydroxy-19-nor-4-androsten-3-one], the IC50 was found to be 54.9 µM.

`C[C@]12CC[C@H]3[C@@H](C[C@@H](O)C4=CC(=O)CC[C@@H]43)[C@@H]1CC[C@@H]2O` [Compound 6, 6β,17β-Dihydroxy-19-nor-4-androsten-3-one]: the IC50 stood at 80.2 µM.

`C[C@]12CC[C@H]3[C@@H](CCC4=CC(=O)CC[C@@]43O)[C@@H]1CCC2=O` [Compound 7, 10β-Hydroxy-19-nor-4-androsten-3,17-dione]: the IC50 was determined as 61.1 µM.

Regarding `C[C@]12CC[C@H]3[C@@H](CCC4=CC(=O)CC[C@@H]43)[C@@H]1C[C@H](O)[C@@H]2O` [Compound 8, 16β,17β-Dihydroxy-19-nor-4-androsten-3-one], the IC50 was found to be 29.6 µM.

Staying with this test, now noted: Leishmania major, 72 h, 72 h at 21-22° C., assays repeated thrice, read-out: Leishmanicidal Activity (IC50 in μM).
With `C[C@@H]1[C@H](O)[C@@H](C)/C=C/C=C/C=C/C=C/C=C/C=C/C=C/[C@H](O[C@@H]2O[C@H](C)[C@@H](O)[C@H](N)[C@@H]2O)C[C@@H]2O[C@](O)(C[C@@H](O)C[C@@H](O)[C@H](O)CC[C@@H](O)C[C@@H](O)CC(=O)O[C@H]1C)C[C@H](O)[C@H]2C(=O)O` [Amphotericin B, reference compound], the IC50 came out at 0.29 ± 0.05 µM.

On to `C[C@]12CC[C@H]3[C@@H](CCC4=CC(=O)CC[C@@H]43)[C@@H]1CC[C@@H]2O` [Compound 1, 17β-Hydroxy-19-nor-4-androsten-3-one, reference compound], for which the IC50 lay in the range of 29.6 to 80.2 µM.

Consider `N=C(N)c1ccc(OCCCCCOc2ccc(C(=N)N)cc2)cc1` [Pentamidine, reference compound], for which the IC50 worked out at 5.09 ± 0.09 µM.

The test is the same for the next values; noted with them: Leishmania major, 72 h, 72 h at 21-22° C., read-out: IC50 against leishmaniasis (unit printed as M).
In the case of `N=C(N)c1ccc(OCCCCCOc2ccc(C(=N)N)cc2)cc1` [Pentamidine, reference compound], the IC50 was 5.09 µM.

Still in this test, the particulars now being: read-out: Leishmanicidal Activity (IC50 in μM), 72 h at 21-22° C., assays repeated thrice, listed as Nandrolone (1).
With `C[C@]12CC[C@H]3[C@@H](CCC4=CC(=O)CC[C@@H]43)[C@@H]1CC[C@@H]2O` [Compound 1, 17β-Hydroxy-19-nor-4-androsten-3-one, reference compound], the IC50 was 32 µM.

One may read the IC50 as the concentration that inhibits the measured activity by half.

The record behind these values is patent publication US9173888B1, “Treatment and inhibition of protozoal diseases with nandrolone and its derivatives” (priority 2014, dated 2015).
